From patent US20250134855A1, “CO[…] AND METHODS OF USING SAME” (LYKOS THERAPEUTICS, INC., priority 2022, published 2025)

Key:
[1] = tested on: participants with severe PTSD; experiment: MAPP1 Phase 3: safety, adverse events; assay type: in vivo, human
Protocol: MAPP1 was a Phase 3 randomized, placebo-controlled, 2-arm, double-blind, multi-site study conducted to investigate the efficacy and safety of MDMA-AT in participants with severe PTSD. This study is also discussed in Mitchell et. al., Nature Medicine 2021, 27, 1025-1033. This study included 3 experimental sessions of therapy combined with either MDMA·HCl or placebo. During Experimental Session 1, participants received a split dose of 120 mg (80 mg+40 mg).
There were 2 serious TEAEs in the placebo with therapy group (1 participant with 2 events of suicide attempt [1 moderate and 1 severe] and 1 participant with 1 event of suicidal ideation [severe], Listing 14.3.2.2.3). Adverse events of special interest included a subset of AEs involving cardiac function, suicidality, and MDMA abuse. There were 3 (6.5%) participants in the MDMA-AT group and 6 (13.6%) participants in the placebo with therapy group with a TEAE of special interest. The majority of AESIs were associated with suicidality (reported by […]) and 1 participant in the placebo group reported 2 AESIs that were associated with cardiac function (palpitations and irregular heart rate). […] A total of 4 participants discontinued study treatment due to a TEAE (MDMA: 1 participant [severe TEAE of depression]; placebo: 3 participants [1 participant with 2 serious adverse events (SAEs) of suicide attempt, 1 participant with a SAE of suicidal ideation, and 1 participant with 1 severe TEAE of insomnia]. The majority of participants in the MDMA-AT group (97.8%) and the placebo with therapy group (90.9%) had at least 1 temporally related TEAE (TEAEs that occurred during an experiment session or up to 2 days following); none of these events were SAEs. A listing of all TEAEs from MDMA-AT group with ≥5% incidence and twice prevalence of placebo group is provided below in Table 37. Table 37.

[2] = tested on: MDMA-AT trial participants (MAPP1 and MAPP2); experiment: MPLONG long-term follow-up: CAPS-5 durability, responder analysis, relapse; assay type: in vivo, human
From the text: MPLONG is an observational long-term follow-up study for MDMA-AT trial participants intended to provide data on treatment durability as measured by the CAPS-5 and Sheehan Disability Scale (SDS). Participants who elect to enroll in MPLONG completed a LTFU visit at least 6 months following their completion of the parent study. MPLONG opened for enrollment 8 months following the last subject visit of the MAPP1 trial and MAPP1 participants entered MPLONG unblinded to their treatment assignment. Enrollees from the second Phase 3 trial MAPP2, however, complete LTFU with blinding maintained.
A sensitivity analysis was conducted to determine whether there was a detectable difference in the observed trend dependent on the time elapsed since the parent study (Table 47 (Table 47 (Table 47). There was no observable impact of the time window, as durability was maintained in both those with LFTU within a year and those with LTFU greater than 12 months after study termination.

MDR1 = MDR1 (Homo sapiens, UniProt P08183); experiment: Transporter substrate assessment, MDR1
[3] = LTFU visit, MAPP1 and MAPP2, loss of diagnosis at study termination and ≥10 point increase and meeting PTSD diagnostic criteria at LTFU
[4] = LTFU visit, MAPP1 and MAPP2, remission at study termination and >11 CAPS-5 TSS at LTFU
[5] = LTFU visit, MAPP1 and MAPP2, ≤11 CAPS-5 TSS from BL not meeting PTSD diagnostic criteria at LTFU
[6] = LTFU visit, MAPP1 and MAPP2, ≥10 point reduction in CAPS-5 TSS from BL and ≥10 point increase from study termination at LTFU
[7] = LTFU visit, MAPP1 and MAPP2, ≥10 pt reduction in CAPS-5 TSS from BL and not meeting PTSD diagnostic criteria at LTFU
[8] = LTFU visit, MAPP1 and MAPP2, ≥10 pt reduction in CAPS-5 TSS from BL at study termination and LTFU
[9] = MAPP1 and MAPP2, LTFU 6-12 Months
[10] = MAPP1 and MAPP2, LTFU >12 Months
[11] = MAPP1 and MAPP2, Study Termination (last available assessment in parent study)
[12] = MAPP2 participants only, Long Term Follow Up Study Visit 1
[13] = MPLONG, MAPP1 and MAPP2 participants, Visit 1
[14] = MPLONG, MAPP1 and MAPP2 participants, parent study Baseline
[15] = MPLONG, MAPP1 and MAPP2 participants, parent study Visit 8
[16] = MPLONG, MAPP1 and MAPP2 participants, parent study Visit 13
[17] = MPLONG, MAPP1 and MAPP2 participants, parent study Visit 19
[18] = MPLONG, MAPP2 participants only, parent study Baseline
[19] = MPLONG, MAPP2 participants only, parent study Visit 8
[20] = MPLONG, MAPP2 participants only, parent study Visit 13
[21] = MPLONG, MAPP2 participants only, parent study Visit 19

MDR1, sequence (P08183 whole entry): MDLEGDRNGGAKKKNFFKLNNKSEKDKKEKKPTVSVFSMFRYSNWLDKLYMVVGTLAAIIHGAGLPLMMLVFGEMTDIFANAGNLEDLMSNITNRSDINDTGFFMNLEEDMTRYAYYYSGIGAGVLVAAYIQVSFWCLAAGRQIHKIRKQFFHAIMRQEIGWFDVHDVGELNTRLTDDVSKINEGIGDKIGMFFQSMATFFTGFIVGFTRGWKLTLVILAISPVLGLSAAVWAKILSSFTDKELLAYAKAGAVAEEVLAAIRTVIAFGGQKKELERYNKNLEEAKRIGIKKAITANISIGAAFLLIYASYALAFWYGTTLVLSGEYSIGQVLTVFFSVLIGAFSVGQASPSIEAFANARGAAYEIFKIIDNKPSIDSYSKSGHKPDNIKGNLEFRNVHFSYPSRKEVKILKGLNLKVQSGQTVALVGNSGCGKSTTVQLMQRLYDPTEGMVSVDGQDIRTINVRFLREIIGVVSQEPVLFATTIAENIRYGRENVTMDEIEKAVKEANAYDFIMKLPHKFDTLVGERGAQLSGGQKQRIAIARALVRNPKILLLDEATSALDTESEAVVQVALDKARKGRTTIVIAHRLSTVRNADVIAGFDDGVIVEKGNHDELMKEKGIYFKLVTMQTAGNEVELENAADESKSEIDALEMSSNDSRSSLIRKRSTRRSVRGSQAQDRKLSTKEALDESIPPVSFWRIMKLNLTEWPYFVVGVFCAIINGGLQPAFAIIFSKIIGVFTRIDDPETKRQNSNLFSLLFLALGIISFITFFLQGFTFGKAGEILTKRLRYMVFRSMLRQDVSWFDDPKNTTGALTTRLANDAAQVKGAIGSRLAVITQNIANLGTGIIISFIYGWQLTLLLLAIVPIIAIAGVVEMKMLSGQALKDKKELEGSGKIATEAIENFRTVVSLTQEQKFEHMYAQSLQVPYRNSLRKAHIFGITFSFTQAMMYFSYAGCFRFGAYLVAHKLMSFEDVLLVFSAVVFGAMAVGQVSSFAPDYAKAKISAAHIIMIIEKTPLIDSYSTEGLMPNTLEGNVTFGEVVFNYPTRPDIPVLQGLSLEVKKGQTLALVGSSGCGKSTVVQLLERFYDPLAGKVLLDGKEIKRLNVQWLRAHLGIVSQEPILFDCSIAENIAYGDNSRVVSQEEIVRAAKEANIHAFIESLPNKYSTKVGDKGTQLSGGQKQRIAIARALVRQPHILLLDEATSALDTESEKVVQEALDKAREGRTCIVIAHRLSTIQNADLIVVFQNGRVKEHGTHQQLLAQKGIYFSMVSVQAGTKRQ

`CNC(C)Cc1ccc2c(c1)OCO2` (centres unmarked) [MDMA, 3,4-methylenedioxymethamphetamine] was tested, and the “AESIs of MDMA abuse” value ([1]; MAPP1) was “no AESIs of MDMA abuse”, the “TEAE Blood pressure increased, %” value ([1]; MAPP1) was “(10.9) %” and the “TEAE Bruxism, %” value ([1]; MAPP1) was “(13.0) %”. The “TEAE Chills, %” value ([1]; MAPP1) was “(6.5) %”, the “TEAE Decreased appetite, %” value ([1]; MAPP1) was “(52.2) %” and the “TEAE Dizziness postural, %” value ([1]; MAPP1) was “(13.0) %”. The “TEAE Dry mouth, %” value ([1]; MAPP1) was “(10.9) %”, the “TEAE Feeling cold, %” value ([1]; MAPP1) was “(19.6) %” and the “TEAE Feeling jittery, %” value ([1]; MAPP1) was “(10.9) %”. For the same compound, the “TEAE Hyperhidrosis, %” value ([1]; MAPP1) was “(21.7) %”, the “TEAE Intrusive thoughts, %” value ([1]; MAPP1) was “(8.7) %” and the “TEAE Micturition urgency, %” value ([1]; MAPP1) was “(6.5) %”. For the same compound, the “TEAE Muscle tightness, %” value ([1]; MAPP1) was “(60.9) %”, the “TEAE Muscle twitching, %” value ([1]; MAPP1) was “(6.5) %” and the “TEAE Musculoskeletal pain, %” value ([1]; MAPP1) was “(8.7) %”. The “TEAE Mydriasis, %” value ([1]; MAPP1) was “(15.2) %”, the “TEAE Nausea, %” value ([1]; MAPP1) was “(30.4) %” and the “TEAE Nervousness, %” value ([1]; MAPP1) was “(6.5) %”. For the same compound, the “TEAE Non-cardiac chest pain, %” value ([1]; MAPP1) was “(8.7) %”, the “TEAE Nystagmus, %” value ([1]; MAPP1) was “(13.0) %” and the “TEAE Pain, %” value ([1]; MAPP1) was “(8.7) %”. The “TEAE Pollakiuria, %” value ([1]; MAPP1) was “(8.7) %”, the “TEAE Pyrexia, %” value ([1]; MAPP1) was “(6.5) %” and the “TEAE Restlessness, %” value ([1]; MAPP1) was “(15.2) %”. The “TEAE Somnolence, %” value ([1]; MAPP1) was “(6.5) %”, the “TEAE Stress, %” value ([1]; MAPP1) was “(8.7) %” and the “TEAE Substance use, %” value ([1]; MAPP1) was “(6.5) %”. The “TEAE Vision blurred, %” value ([1]; MAPP1) was “(8.7) %”, the “TEAE Vomiting, %” value ([1]; MAPP1) was “(8.7) %” and the “participants with a TEAE of special interest” value ([1]; MAPP1) was 6.5%. For the same compound, the “At least one Serious TEAE Leading to Death, %” value ([1]; MAPP1, Safety Set) was “(0.0) %”, the “At least one Serious TEAE, %” value ([1]; MAPP1, Safety Set) was “(0.0) %” and the “At least one TEAE of Special Interest, %” value ([1]; MAPP1, Safety Set) was “(6.5) %”. The “Discontinued study treatment due to any TEAE(s), %” value ([1]; MAPP1, Safety Set) was “(2.2) %”, the “Participants with at least 1 TEAE during Experimental Sessions and 2 Days Following, %” value ([1]; MAPP1, Safety Set) was “(97.8) %” and the “Subjects with at least 1 Severe TEAE, %” value ([1]; MAPP1, Safety Set) was “(8.7) %”. The “Subjects with at least 1 TEAE, %” value ([1]; MAPP1, Safety Set) was “(100.0) %”, the “heart rate and blood pressure during experimental sessions” value ([1]; MAPP1, dose-dependent, no clinical intervention required) was “transient increases” and the “participants with at least 1 temporally related TEAE” value ([1]; MAPP1, during an experiment session or up to 2 days following) was 97.8%. For the same compound, the “Relapse after Loss of Diagnosis, Does not meet criteria, %” value [2, 3] was “(93.8) %”, the “Relapse after Loss of Diagnosis, Meets criteria, %” value [2, 3] was “(6.2) %” and the “Relapse of Remission, Does not meet criteria, %” value [2, 4] was “(95.4) %”. The “Relapse of Remission, Meets criteria, %” value [2, 4] was “(4.6) %”, the “Durable Remission, Does not meet criteria, %” value [2, 5] was “(40.0) %” and the “Durable Remission, Meets criteria, %” value [2, 5] was “(60.0) %”. The “Relapse after Treatment Response, Does not meet criteria, %” value [2, 6] was “(93.8) %”, the “Relapse after Treatment Response, Meets criteria, %” value [2, 6] was “(6.2) %” and the “Durable Loss of Diagnosis, Does not meet criteria, %” value [2, 7] was “(16.9) %”. For the same compound, the “Durable Loss of Diagnosis, Meets criteria, %” value [2, 7] was “(83.1) %”, the “Durable Treatment Response, Does not meet criteria, %” value [2, 8] was “(10.8) %” and the “Durable Treatment Response, Meets criteria, %” value [2, 8] was “(89.2) %”. For the same compound, the “loss of diagnosis at LTFU” value ([2]; MAPP1 and MAPP2) was 83.1%, the “met the definition of treatment response at LTFU” value ([2]; MAPP1 and MAPP2) was 89.2% and the relapse following remission ([2]; MAPP1 and MAPP2) was 4.6%. The “relapse following treatment response or loss of diagnosis” value ([2]; MAPP1 and MAPP2) was 12.3%, the “remission at LTFU” value ([2]; MAPP1 and MAPP2) was 60% and the “CAPS-5 Total Severity Score, Actual, Mean” value [2, 9] was 11.9. The “CAPS-5 Total Severity Score, Actual, Median” value [2, 9] was 9.0, the “CAPS-5 Total Severity Score, Change from Study Termination, Mean” value [2, 9] was −3.7 and the “CAPS-5 Total Severity Score, Change from Study Termination, Median” value [2, 9] was −2.5. For the same compound, the “CAPS-5 Total Severity Score, Actual, Mean” value [2, 10] was 11.2, the “CAPS-5 Total Severity Score, Actual, Median” value [2, 10] was 6.0 and the “CAPS-5 Total Severity Score, Change from Study Termination, Mean” value [2, 10] was −5.9. For the same compound, the “CAPS-5 Total Severity Score, Change from Study Termination, Median” value [2, 10] was −5.0, the “CAPS-5 Total Severity Score, Actual, Mean” value [2, 11] was 16.4 and the “CAPS-5 Total Severity Score, Actual, Median” value [2, 11] was 15.0. The “mean change from baseline (CFB) in CAPS-5 scores at LTFU” value ([2]; MAPP2 parent study) was −28.7, the “CAPS-5 Total Severity Score, Actual, Mean” value [2, 12] was 10.7 and the “CAPS-5 Total Severity Score, Actual, Median” value [2, 12] was 8.5. For the same compound, the “CAPS-5 Total Severity Score, CFB, Mean” value [2, 12] was −28.7, the “CAPS-5 Total Severity Score, CFB, Median” value [2, 12] was −30.5 and the “CAPS-5 Total Severity Score, Actual, Mean” value [2, 13] was 11.5. For the same compound, the “CAPS-5 Total Severity Score, Actual, Median” value [2, 13] was 8.0, the “CAPS-5 Total Severity Score, CFB, Mean” value [2, 13] was −29.2 and the “CAPS-5 Total Severity Score, CFB, Median” value [2, 13] was −31.0. The “CAPS-5 Total Severity Score, Actual, Mean” value [2, 14] was 40.8, the “CAPS-5 Total Severity Score, Actual, Median” value [2, 14] was 40.0 and the “CAPS-5 Total Severity Score, Actual, Mean” value [2, 15] was 29.5. For the same compound, the “CAPS-5 Total Severity Score, Actual, Median” value [2, 15] was 31.0, the “CAPS-5 Total Severity Score, CFB, Mean” value [2, 15] was −11.3 and the “CAPS-5 Total Severity Score, CFB, Median” value [2, 15] was −12.0. For the same compound, the “CAPS-5 Total Severity Score, Actual, Mean” value [2, 16] was 22.0, the “CAPS-5 Total Severity Score, Actual, Median” value [2, 16] was 23.0 and the “CAPS-5 Total Severity Score, CFB, Mean” value [2, 16] was −18.8. For the same compound, the “CAPS-5 Total Severity Score, CFB, Median” value [2, 16] was −19.0, the “CAPS-5 Total Severity Score, Actual, Mean” value [2, 17] was 15.9 and the “CAPS-5 Total Severity Score, Actual, Median” value [2, 17] was 14.0. The “CAPS-5 Total Severity Score, CFB, Mean” value [2, 17] was −24.8, the “CAPS-5 Total Severity Score, CFB, Median” value [2, 17] was −27.0 and the “CAPS-5 Total Severity Score, Actual, Mean” value [2, 18] was 39.4. The “CAPS-5 Total Severity Score, Actual, Median” value [2, 18] was 38.5, the “CAPS-5 Total Severity Score, Actual, Mean” value [2, 19] was 28.1 and the “CAPS-5 Total Severity Score, Actual, Median” value [2, 19] was 30.5. The “CAPS-5 Total Severity Score, CFB, Mean” value [2, 19] was −11.3, the “CAPS-5 Total Severity Score, CFB, Median” value [2, 19] was −12.0 and the “CAPS-5 Total Severity Score, Actual, Mean” value [2, 20] was 19.7. The “CAPS-5 Total Severity Score, Actual, Median” value [2, 20] was 18.0, the “CAPS-5 Total Severity Score, CFB, Mean” value [2, 20] was −19.8 and the “CAPS-5 Total Severity Score, CFB, Median” value [2, 20] was −22.0. The “CAPS-5 Total Severity Score, Actual, Mean” value [2, 21] was 14.8, the “CAPS-5 Total Severity Score, Actual, Median” value [2, 21] was 12.0 and the “CAPS-5 Total Severity Score, CFB, Mean” value [2, 21] was −24.5. The “CAPS-5 Total Severity Score, CFB, Median” value [2, 21] was −27.0 and the “substrate of MDR1” value (MDR1) was “not a substrate”.
